Experimental data taken from patent publication US6599925B2 (Wyeth, priority 2001, dated 2003).

What was measured:
human PAI-1 = human PAI-1 (Homo sapiens, UniProt P05121); test: Assay for determining IC50 of inhibition of PAI-1 (Antibody Assay); type: binding; settings: footnote a: determined by the Antibody Assay; active PAI-1 bound to tPA-coated plate, pH 7.5
Protocol: Assay for Determining IC50 of Inhibition of PAI-1
This assay is based upon the non-SDS dissociable interaction between tPA and active PAI-1. Assay plates are initially coated with human tPA (10 μg/ml). Test compounds are dissolved in DMSO at 10 mM, then diluted with physiologic buffer (pH 7.5) to a final concentration of 1-50 μM. The test compounds are incubated with human PAI-1 (50 ng/ml) for 15 minutes at room temperature. The tPA-coated plate is washed with a solution of 0.05% Tween 20 and 0.1% BSA, then the plate is blocked with a solution of 3% BSA. An aliquot of the test compound/PAI-1 solution is then added to the tPA-coated plate, incubated at room temperature for 1 hour, and washed. Active PAI-1 bound to the plate is assessed by adding an aliquot of a 1:1000 dilution of the 33B8 monoclonal antibody against human PAI-1, and incubating the plate at room temperature for 1 hour (Molecular Innovations, Royal Oak, Mich.). The plate is again washed, and a solution of goat anti-mouse IgG-alkaline phosphatase conjugate is added at a 1:50,000 dilution in goat serum. The plate is incubated 30 minutes at room temperature, washed, and a solution of alkaline phosphatase substrate is added. The plate is incubated 45 minutes at room temperature, and color development is determined at OD405nm. The quantitation of active PAI-1 bound to tPA at varying concentrations of the test compound is used to determine the IC50. Results are analyzed using a logarithmic best-fit equation. The assay sensitivity is 5 ng/ml of human PAI-1 as determined from a standard curve ranging from 0-100 ng/ml.

Chain of human PAI-1 (P05121 24-402): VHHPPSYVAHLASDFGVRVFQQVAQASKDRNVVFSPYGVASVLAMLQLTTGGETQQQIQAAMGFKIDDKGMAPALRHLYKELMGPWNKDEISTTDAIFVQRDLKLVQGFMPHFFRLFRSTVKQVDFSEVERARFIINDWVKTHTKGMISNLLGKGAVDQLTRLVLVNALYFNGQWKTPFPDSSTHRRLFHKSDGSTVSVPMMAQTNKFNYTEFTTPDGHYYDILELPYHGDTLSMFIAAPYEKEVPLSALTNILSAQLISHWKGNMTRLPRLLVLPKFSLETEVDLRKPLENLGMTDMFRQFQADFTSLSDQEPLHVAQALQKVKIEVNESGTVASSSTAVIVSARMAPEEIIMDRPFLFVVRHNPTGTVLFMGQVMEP

Compound | IC50 (human PAI-1) | melting point
CCCCC(=O)c1c(-c2ccc3c(-c4ccccc4)c(OCc4nnn[nH]4)ccc3c2)oc2ccccc12 [Example 16, 1-{2-[5-Phenyl-6-(1H1,2,3,4-tetraazol-5-ylmethoxy)-2-naphthyl]-1-benzofuran-3-yl}-1-pentanone] | 10 µM | 160 to 164 °C
CCCCC(=O)c1c(-c2ccc3c(C)c(OCc4nnn[nH]4)ccc3c2)oc2ccccc12 [Example 20, 1-{2-[5-Methyl-6-(1H-1,2,3,4-tetraazol-5-ylmethoxy)-2-naphthyl]-1-benzofuran-3-yl}-1-pentanone] | 24.2 µM | 162 to 164 °C
CCCCC(=O)c1c(-c2ccc3c(C)c(OCC(=O)O)ccc3c2)oc2ccccc12 [Example 22, 2-{[1-Methyl-6-(3-pentanoyl-1-benzofuran-2-yl)-2-naphthyl]oxy}acetic acid] | 13.3 µM | 153 to 155 °C
CCCCC(=O)c1c(-c2ccc3c(C)c(OC(Cc4ccccc4)C(=O)[O-])ccc3c2)oc2ccccc12.[Na+] (stereo not shown) [Example 23, 2-{[1-Methyl-6-(3-pentanoyl-1-benzofuran-2-yl)-2-naphthyl]oxy}-3-phenylpropanoic acid, sodium salt] | 12.4 µM | 221 to 222 °C
CCCCC(=O)c1c(-c2ccc3c(Cl)c(OCC(=O)O)ccc3c2)oc2ccccc12 [Example 24, 2-{[1-Chloro-6-(3-pentanoyl-1-benzofuran-2-yl)-2-naphthyl]oxy}acetic acid] | 11 µM | 142 to 143 °C
CCCCC(=O)c1c(-c2ccc3c(Cl)c(OCc4nnn[nH]4)ccc3c2)oc2ccccc12 [Example 25, 1-{2-[5-Chloro-6-(1H-1,2,3,4-tetraazol-5-ylmethoxy)-2-naphthyl]-1-benzofuran-3-yl}-1-pentanone] | 14 µM | 168 to 169 °C

Now those with a lower IC50 (human PAI-1), led by results:

IC50 (human PAI-1) | melting point | Compound
2.7 µM | 272 to 273 °C (dec.) | CCCCC(=O)c1c(-c2ccc3c(-c4ccccc4)c(OCC(=O)[O-])ccc3c2)oc2ccccc12.[Na+] [Example 14, 2-{[6-(3-Pentanoyl-1-benzofuran-2-yl)-1-phenyl-2-naphthyl]oxy}acetic acid, sodium salt]
2.7 µM | 150 to 152 °C | O=C(O)COc1ccc2cc(-c3oc4ccccc4c3C(=O)CC3CCCC3)ccc2c1Br [Example 17, 2-({1-Bromo-6-[3-(2-cyclopentylacetyl)-1-benzofuran-2-yl]-2-naphthyl}oxy)acetic acid]
3.85 µM | 202 to 203 °C | O=C(O)COc1ccc2cc(-c3oc4ccccc4c3-c3ccccc3)ccc2c1-c1ccccc1 [Example 29, {[1-Phenyl-6-(3-phenyl-1-benzofuran-2-yl)-2-naphthyl]oxy}acetic acid]
8.17 µM | 178 to 180 °C | CCCCCc1c(-c2ccc3cc(OCc4nnn[nH]4)ccc3c2)oc2ccccc12 [Example 34, 5-[6-(3-Pentyl-benzofuran-2-yl)-naphthalen-2-yloxymethyl]-1H-tetrazole]
6.54 µM | 159 to 161 °C | CCCCCc1c(-c2ccc3c(Br)c(OCC(=O)O)ccc3c2)oc2ccccc12 [Example 36, [1-Bromo-6-(3-pentyl-benzofuran-2-yl)-naphthalen-2-yloxy]-acetic acid]
